What was measured:
monoclonal antibody DD-1 = assay: Competition ELISA with monoclonal antibody DD-1; format: binding, Biozzi mice; conditions: for I50 (inhibits antibody binding by 50%): competitor vs monoclonal antibody DD-1, plate coated with A-triCDD-RSA
Experimental: (§1) In this case the hybridomas were then screened for their ability to distinguish A-triCDD-BSA and A-triCDD-RSA from BSA and RSA. On the basis of this initial screen about 25 stable, antibody-producing colonies were isolated, subcloned, and frozen. The remaining clones were again screened for their abilities to recognize free TCDD in suspension. Experimentally, on the order of 10-100 nanograms of TCDD in hexane was dried, 0.5 ml of saline with BSA (1 mg/ml) was added and sonificated for 2 hrs. […] Identical procedures were followed for other dioxin isomers. A dilution series in microtiter plate wells was then made with the suspended TCDD, antibody adde, and the competition ELISA completed. Competition ELISA test procedures are discussed in detail in the following reference: Butt, W. R. (1984) "Practical Immunoassay: The State of the Art", Marcel Dekker, Inc., N.Y., N.Y.
(§2) A large part of the success that we have had in characterizing the binding specificities of our monoclonal antibodies comes from having developed a reliable competition ELISA protocol. Our preferred assay starts from stock solutions at 10 ppm in hexane of the various compounds listed in Table I. 10 μl of hexane solution is aliquoted into a small vial, evaporated under a stream of nitrogen gas, and 500 μl of a 1 mg/ml solution of BSA in phosphate buffered saline with 0.1% BSA is added. The vial is capped and placed in an ultrasonic cleaning waterbath for two hours. Two hours of sonification gives a more reproducible assay than does an hour. During the sonification, the hexane appears to evaporate completely, and one is left with an aqueous solution containing the dioxin. Microtiter plates coated with A-triCDD-RSA are blocked with a three percent solution of ovalbumin and a two-fold dilution series of sonificated dioxin-BSA is then made, covering the range 100 ppb-0.1 ppb. In each well of the plate 100 μl of the sonificated dioxin-BSA solution is mixed with n equal volume of antibody. The antibody partitions between the dioxin adsorbed to the BSA, and the A-tri-CDD-RSA on the plate.
(§3) A-TriCDD-RSA was adsorbed onto the surface of the wells of a microtiter plate. The various competitors listed were suspended in saline containing bovine serum albumin (BSA). These solutions were made by sonificating 10 μl of dioxin solution in hexane with 500 μl of saline-BSA. A dilution series of these dioxin-BSA solutions was then made covering the range of 100-0.2 ppb, and placed in the microtiter plate wells. An equal volume of DD-1 monoclonal antibody was then added, and allowed to react for 1 hour. Tne antibody binds either to the A-TriCDD-RSA on the plate or the dioxin in solution. After the hour, the solution phase is removed, the plate washed, and it is reincubated for an hour with peroxidase-conjugated goat-anti-mouse-immunoglobulins. A second washing is then done, and substrate (ABTS) added to the peroxidase. The enzyme-antibody conjugate and substrate function as a "developer", allowing the visualization of the DD-1 bound to the A-triCDD-RSA on the plate. Results are then expressed as a fraction of the response in wells with no competitor. […] At about 20 ppb of 2,3,7,8-TCDD the relative ELISA response is half of control, meaning that half the DD-1 antibody bound to the solution phase dioxin and half bound to the A-triCDD-RSA on the plate. For 1,2,3,7(8)-TCDD, 50% inhibition occurs at about 4 ppb, indicating the DD-1 prefers 1,2,3,7(8)-TCDD to 2,3,7,8-TCDD.
(§4) The FIGURE and Table II show representative competition data using several chlorinated compounds as competitors. From such data, one can determine the concentration required to inhibit antibody binding by 50% (I50). Table II lists the I50 for all compounds tested with the antibodies. In reporting these values, factors of two are about the limit of significance. […] The binding specificities of these antibodies are highly desirable, since they prefer the most toxic of the dioxin and dibenzofuran isomers.

monoclonal antibody DD-3 = assay: Competition ELISA with monoclonal antibody DD-3; format: binding, BALB/c mice; conditions: competitor vs monoclonal antibody DD-3; plate coated with A-triCDD-RSA
Experimental: as §1, §2, §3, §4

monoclonal antibody DD-4 = assay: Competition ELISA with monoclonal antibody DD-4; format: binding, BALB/c mice; conditions: for I50 (inhibits antibody binding by 50%): competitor vs monoclonal antibody DD-4, plate coated with A-triCDD-RSA
Experimental: as §1, §2, §3, §4

monoclonal antibody DD-5 = assay: Competition ELISA with monoclonal antibody DD-5; format: binding, Biozzi mice; conditions: competitor vs monoclonal antibody DD-5; plate coated with A-triCDD-RSA
Experimental: as §1, §2, §3, §4

monoclonal antibody DD-6 = assay: Competition ELISA with monoclonal antibody DD-6; format: binding, Biozzi mice; conditions: competitor vs monoclonal antibody DD-6; plate coated with A-triCDD-RSA
Experimental: as §1, §2, §3, §4

Row | Compound | I50 (inhibits antibody binding by 50%) (monoclonal antibody DD-1) [ng] | I50 (inhibits antibody binding by 50%) (monoclonal antibody DD-3) [ng] | reactivity of DD-4 with competitor (monoclonal antibody DD-4; DD-4) | I50 (inhibits antibody binding by 50%) (monoclonal antibody DD-4) [ng] | I50 (inhibits antibody binding by 50%) (monoclonal antibody DD-5) [ng] | I50 (inhibits antibody binding by 50%) (monoclonal antibody DD-6) [ng] | concentration at which 50% inhibition occurs (relative ELISA response half of control) (monoclonal antibody DD-1; FIGURE, DD-1, competitor in saline-BSA, dilution series 100-0.2 ppb)
1 | 1,2,3,6(7),7(8),8(9)-hexa-CD[ | > 200 | > 200 | some reactivity | > 200 | > 10 | > 200 | –
2 | 1,2,3,7,(8)-TCDD | 0.15 | 0.45 | – | 0.3 | 0.3 | 0.15 | about 4 ppb
3 | Clc1ccc2c(c1)Oc1c(Cl)c(Cl)c(Cl)c(Cl)c1O2 [1,2,3,4,7-penta-CDD] | > 2 | > 2 | – | > 2 | – | > 2 | –
4 | Clc1cc2c(cc1Cl)Oc1c(cc(Cl)c(Cl)c1Cl)O2 [1,2,3,7,8-penta-CDD] | 0.2 | 0.15 | – | 0.02 | – | > 0.004 | –
5 | Clc1cc(Cl)c2c(c1Cl)Oc1ccccc1O2 [1,2,4-Tri-CDD] | > 200 | > 200 | – | > 200 | > 10 | > 200 | –
6 | Nc1c(Cl)ccc2c1Oc1cc(Cl)c(Cl)cc1O2 [1-amino-2,7,8-TriCDD] | 0.2 | > 0.04 | – | > 0.01 | > 0.02 | 0.02 | –
7 | O=[N+]([O-])c1c(Cl)ccc2c1Oc1cc(Cl)c(Cl)cc1O2 [1-nitro-2,7,8-TriCDD] | 0 | 0.15 | – | 0.02 | – | > 0.004 | –
8 | Clc1cc(-c2cc(Cl)c(Cl)c(Cl)c2Cl)c(Cl)c(Cl)c1Cl [2,2',3,3',4,4',5,5'-Octa-CBP] | > 200 | > 200 | – | > 200 | > 10 | > 200 | –
9 | Clc1ccc(-c2c(Cl)cc(Cl)c(Cl)c2Cl)c(Cl)c1Cl [2,2',3,3',4,4',6-Hepta-CBP] | > 200 | > 200 | – | > 200 | > 10 | > 200 | –
10 | Clc1ccc(Cl)c(-c2c(Cl)c(Cl)c(Cl)c(Cl)c2Cl)c1Cl [2,2',3,3',4,5,6,6'-Octa-CBP] | > 200 | > 200 | – | > 200 | > 10 | > 200 | –
11 | Clc1ccc(-c2cc(Cl)c(Cl)c(Cl)c2Cl)c(Cl)c1 [2,2',3,4,4',5-Hexa-CBP] | > 200 | > 200 | – | > 200 | > 10 | > 200 | –
12 | Clc1ccc(Cl)c(-c2c(Cl)c(Cl)c(Cl)c(Cl)c2Cl)c1 [2,2',3,4,5,5',6-Hepta-CBP] | > 200 | > 200 | – | > 200 | > 10 | > 200 | –
13 | Clc1ccccc1-c1cc(Cl)c(Cl)c(Cl)c1Cl [2,2',3,4,5-Penta-CBP] | > 200 | > 200 | – | > 200 | > 10 | > 200 | –
14 | Clc1cc(Cl)c(-c2ccccc2Cl)c(Cl)c1 [2,2',4,6-TCBP] | > 200 | > 200 | – | > 200 | > 10 | > 200 | –
15 | OCC(Cl)(Cl)Cl [2,2,2-Tricholoroethanol, 2,2,2-Tricholoro-ethanol] | > 2000 | > 2000 | – | > 2000 | > 2000 | > 2000 | –
16 | Brc1cc2c(cc1Br)Oc1cc(Br)c(Br)cc1O2 [2,3,7,8-tetra-Bromo-DD] | 0.05 | 1 | – | 1 | – | > 2 | –
17 | O=C(O)COc1cc(Cl)c(Cl)cc1Cl [2,4,5-Trichlorophenoxyacet, 2,4,5-Trichloro-phenoxyacet] | 2000 | > 2000 | – | > 2000 | > 2000 | 2700 | –
18 | Oc1cc(Cl)c(Cl)cc1Cl [2,4,5-Trichlorophonol] | 800 | > 2000 | – | > 2000 | > 2000 | > 2000 | –
19 | O=[N+]([O-])c1cc(Cl)cc(Cl)c1O [2,4-Dichloro-6-nitrophenol, 2,4-Dichloro-6-nitro-phenol] | > 2000 | > 2000 | – | > 2000 | > 2000 | > 2000 | –
20 | Oc1ccc(Cl)cc1Cl [2,4-Dichlorophenol] | 2000 | > 2000 | – | > 2000 | > 2000 | > 2000 | –
21 | O=C(O)COc1ccc(Cl)cc1Cl [2,4-Dichlorophenoxyacetic, 2,4-Dichlorophenoxy-acetic] | > 2000 | > 2000 | – | > 2000 | – | – | –
22 | O=[N+]([O-])c1cc(Cl)ccc1Cl [2,5-Dichloronitrobenzene, 2,5-Dichloronitro-benzene] | 90 | 2000 | – | > 2000 | 2000 | 700 | –
23 | Toxaphene | – | > 2000 | – | > 2000 | > 2000 | > 2000 | –
